The results in this text go back to US10179122B2, “Use of melatonin” (priority 2011, dated 2019).

Each structure is given as a SMILES string.

This experiment deals with hangover symptoms after consumption of alcoholic beverages. Description: Hangover symptoms after alcohol consumption, blinded subjects given a sublingual melatonin strip before sleep. The experiment is classed as in vivo, human. The protocol: Subjects were blind to all the experimental treatments.
A person was fed alcoholic beverages containing ethyl alcohol until the blood alcohol concentration reached 310 mg/dL at a time of 10 pm. Next, the person drank 1 l of water and immediately after that was administered a sublingual strip comprising 2.5 mg of melatonin in non-retard form. After that the person went to sleep. […] This experiment was repeated with 20 other persons with the same effect.
For comparison, the same experiment was conducted with administration of the sublingual strip without melatonin as a placebo. 19 out of 20 persons reported severe typical hangover symptoms like headaches.

Consider `COc1ccc2[nH]cc(CCNC(C)=O)c2c1` [melatonin], for which the “typical hangover symptoms after 8 h of physiologic sleep” value (one person, blood alcohol concentration 310 mg/dL at 10 pm, 1 l of water, then sublingual strip with 2.5 mg melatonin in non-retard form, assessed after 8 h sleep) is on record as “did not suffer from any typical hangover symptoms”. In addition, the “typical hangover symptoms after 8 h of physiologic sleep (experiment repeated)” value (repeated with 20 other persons, same protocol (310 mg/dL, 1 l of water, sublingual strip with 2.5 mg melatonin in non-retard form, 8 h sleep)) is “same effect”.
